Experimental data: US20250376473A1, “PRMTS INHIBITOR AND USE THEREOF” (Cytosinlab Therapeutics Co., Ltd., priority 2022, published 2025)
Read-outs that look alike come from different tables or passages of the source.

Tests used:
[1] = tested on: HCT116-MTAP-KO cells (HCT116 MTAP null); experiment: Proliferation inhibition of HCT116 MTAP-KO cells in vitro (CellTiter Glo); assay type: cell-based; conditions: 6 days, 9 concentrations starting from 3 μM, read-out: Cell proliferation inhibition rate HCT116 MTAP null IC50 (nm)
Text: (§1) Biological Test Example 2 Proliferation Inhibition of HCT116 and HCT116 MTAP-KO Cells in Vitro
(§2) HCT116 cell line was purchased from the Chinese Academy of Sciences Cell Bank, and the MTAP gene was knocked out by CRISPR/Cas9 technology to obtain HCT116-MTAP-KO cell line.
(§3) McCoy's 5A medium (Gibco, catalog No. 16600082), fetal bovine serum (Gibco, catalog No. 10099141C), penicillin-streptomycin double antibody (Gibco, catalog No. 15140122), pancreatic enzyme (Gibco, catalog No. 25200056), CellTiter Glo assay kit (Promega, catalog No. G7572), 384-well transparent flat-bottomed black walled cell culture plate (Corning, catalog No. 3764), ultra micro sampler (Tecan, catalog No.D300e), Multimode reader (Biotek, catalog No. SynergyHTX)
(§4) 1. Cell culture: HCT116 and HCT116-MTAP-KO cells were cultured in McCoy'5A medium+10% fetal bovine serum+1% penicillin-streptomycin double antibody; to ensure that they were always in the logarithmic growth phase and the cell viability greater than 95%.
(§5) 2. Compound concentration gradient preparation: The compound to be tested was added to a 384-well plate using an ultra micro sampler, starting from 30 μM (HCT116 cells) or 3 μM (HCT116-MTAP-KO cells), and diluted with DMSO at 3 times for a total of 9 concentrations and set up three duplicate wells.
(§6) 3. Treatment of cells with compounds: Trypsin-digested HCT116 or HCT116-MTAP-KO cell suspension was added to the 384-well plates spotted with the compounds to be tested at 40 μL per well, i.e., 100 cells per well, and the final concentration of DMSO was 0.4%. The cell culture plate was incubated at 37° C. in a 5% CO2 incubator for 6 days.
(§7) 4. Detection: 20 μL of CellTiter Glo reagent was added to each well of the cell culture plate and incubated at room temperature for 30 minutes. A multimode reader was used to detect the luminescence signal at […].
(§8) The data was fitted with GraphPad Prism 8.0 software using a four parameter inhibitor-reaction model to obtain the IC50 value (half inhibitory concentration) of the test compounds.

[2] = tested on: HCT116 MTAP WT cells; experiment: Proliferation inhibition of HCT116 cells in vitro (CellTiter Glo); assay type: cell-based; conditions: 6 days, 9 concentrations starting from 30 μM, read-out: Cell proliferation inhibition rate HCT116 MTAP WT IC50 (nm)
Text: as §1, §2, §3, §4, §5, §6, §7, §8

| IC50 ([1]; HCT116-MTAP null, 144 h) [µM] | IC50 ([2]; Homo sapiens, HCT-116, 144 h) [µM] | IC50 [1] [µM] | IC50 [2] [µM] | SMILES |
| --- | --- | --- | --- | --- |
| 0.1 to 1 | 1 to 10 | – | – | Cc1ncc2c(N)nc3cc(F)c(C(=O)N(Cc4ccc(C(F)(F)F)cn4)c4cn[nH]c4)cc3n12 [Example 88] |
| < 0.1 | 1 to 10 | – | – | Cc1ncc2c(N)nc3cc(F)c(C(=O)N4C(C)COCC4c4cnc(C(F)(F)F)s4)cc3n12 (centres unmarked) [Example 89] |
| < 0.1 | 1 to 10 | – | – | Cc1ncc2c(N)nc3cc(F)c(C(=O)N(Cc4ccc(C(F)(F)F)cn4)c4cnn(C)c4)cc3n12 [Example 90] |
| – | – | 0.1 to 1 | 1 to 10 | CCOc1ccc(CN(CC)C(=O)c2cc3c(cc2F)nc(N)c2c(C)ncn23)nn1 [Example 95] |
| 0.1 to 1 | 1 to 10 | – | – | CCN(Cc1ccc(OC2COC2)cn1)C(=O)c1cc2c(cc1F)nc(N)c1cnc(C)n12 [Example 99] |
| – | – | < 0.1 | 0.1 to 1 | Cc1ncn2c1c(N)nc1cc(F)c(C(=O)N3C(C)COCC3c3ccc(C(F)F)cn3)cc12 (centres unmarked) [Example 101] |
| < 0.1 | 1 to 10 | – | – | CCOc1ccc(CN(CC)C(=O)c2cc3c(cc2F)nc(N)c2cnc(C)n23)nn1 [Example 102] |
| < 0.1 | 1 to 10 | – | – | CCOCCc1ccc(C2COCC(C)N2C(=O)c2cc3c(cc2F)nc(N)c2c(C)ncn23)nc1 (centres unmarked) [Example 103] |
| < 0.1 | 1 to 10 | – | – | COCCOc1ccc(C2COCC(C)N2C(=O)c2cc3c(cc2F)nc(N)c2c(C)ncn23)nc1 (centres unmarked) [Example 105] |
| < 0.1 | 1 to 10 | – | – | Cc1ncn2c1c(N)nc1cc(F)c(C(=O)N3C(c4ccc(C#N)cn4)COC[C@H]3C)cc12 (some centres unmarked) [Example 108] |
| < 0.1 | 1 to 10 | – | – | Cc1nn(C)cc1N(Cc1ccc(C(F)(F)F)cn1)C(=O)c1cc2c(cc1F)nc(N)c1cnc(C)n12 [Example 109] |
| < 0.1 | 0.1 to 1 | – | – | Cc1ncc2c(N)nc3cc(F)c(C(=O)N4C(c5ccc(C(F)F)cn5)COC[C@H]4C)cc3n12 (some centres unmarked) [Example 110] |
| < 0.1 | 1 to 10 | – | – | Cc1ncn2c1c(N)nc1cc(F)c(C(=O)N3C(C)COCC3c3ccc(C4CCOCC4)cn3)cc12 (centres unmarked) [Example 112] |
| 0.1 to 1 | 1 to 10 | – | – | Cc1ncc2c(N)nc3cc(F)c(C(=O)N(Cc4ccc(C(F)(F)F)cn4)c4ncn(C)n4)cc3n12 [Example 115] |
| 0.1 to 1 | 1 to 10 | – | – | Cc1ncc2c(N)nc3cc(F)c(C(=O)N(Cc4ccc(OCC(F)(F)F)cn4)c4cnn(C)c4)cc3n12 [Example 116] |
| 0.1 to 1 | 1 to 10 | – | – | Cc1ncc2c(N)nc3cc(F)c(C(=O)N(Cc4ccc(C(F)(F)F)cn4)c4ccn(CCO)n4)cc3n12 [Example 117] |
| < 0.1 | 1 to 10 | – | – | Cc1c(N(Cc2ccc(C(F)(F)F)cn2)C(=O)c2cc3c(cc2F)nc(N)c2cnc(C)n23)cnn1C [Example 118] |
| 0.1 to 1 | 1 to 10 | – | – | Cc1ncc2c(N)nc3cc(F)c(C(=O)N(Cc4ccc(C(F)(F)F)nn4)c4cnn(C)c4)cc3n12 [Example 119] |
| < 0.1 | 1 to 10 | – | – | Cc1ncc2c(N)nc3cc(F)c(C(=O)N(Cc4ncc(C(F)(F)F)cc4F)c4cnn(C)c4)cc3n12 [Example 120] |
| – | – | < 0.1 | 1 to 10 | Cc1ncn2c1c(N)nc1cc(F)c(C(=O)N(c3cnn(C)c3)C3COc4ccccc43)cc12 (centres unmarked) [Example 121] |
| 0.1 to 1 | 1 to 10 | – | – | COc1cc(N(Cc2ccc(C(F)(F)F)cn2)C(=O)c2cc3c(cc2F)nc(N)c2cnc(C)n23)nn1C [Example 122] |
| < 0.1 | 1 to 10 | – | – | COc1ccc(N(Cc2ccc(C(F)(F)F)cn2)C(=O)c2cc3c(cc2F)nc(N)c2cnc(C)n23)cn1 [Example 124] |
| – | 1 to 10 | – | – | Cc1nn(C)cc1N(Cc1cn2cc(C(F)(F)F)ccc2n1)C(=O)c1cc2c(cc1F)nc(N)c1cnn(C)c12 [Example 204] |
| – | 1 to 10 | – | – | Cn1nccc1N(Cc1cn2cc(C(F)(F)F)ccc2n1)C(=O)c1cc2c(cc1F)nc(N)c1cnn(C)c12 [Example 218] |
| 0.1 to 1 | – | – | – | C[C@@H]1COC[C@H](c2cn3ccccc3n2)N1C(=O)c1ccc2nc(N)c3cnn(C)c3c2c1 [Example 416] |
